According to patent publication US11684616B2, “Azalactam compounds as HPK1 inhibitors” (PFIZER INC., priority 2020, dated 2023):

Columns and labels:
[1] = target: human full-length autophosphorylated recombinant HPK1 (Homo sapiens (Human), UniProt Q92918); test: HPK1 biochemical enzyme assay (chelation-enhanced fluorescence, CHEF); details: 0.5 nM HPK1, 45 μM ATP, Morrison fit
Description: HPK1 Biochemical Enzyme Assay
HPK1 enzyme inhibition was measured by using the fluorescence-based chelation-enhanced fluorescence (CHEF) method (1), and by using a proprietary fluorescent peptide substrate, in which a cysteine residue is alkylated with a sulfonamido-oxine-based derivative to afford an amino acid termed C-Sox (CSx). […] Initial reaction velocities were determined by following the peptide fluorescence (λex=360 nm, λem=500 nm) at 30° C. for 15 min in a Tecan M1000 plate reader (Tecan Group Ltd., Mannedorf, Zurich, Switzerland).
Production of Autophosphorylated Full-Length Recombinant HPK1
The DNA sequence encoding full-length human HPK1 (Genbank NM_001042600.2) was synthesized at GenScript and contained a limited number of silent base changes to eliminate certain restriction endonuclease enzyme recognition sites, and fused to a DNA sequence encoding a Tobacco Etch Virus (TEV)-cleavable N-terminal polyhistidine purification tag. A recombinant baculovirus was prepared by using the Bac-to-Bac method (InVitrogen) and was used to infect 9 L of Sf21 insect cells. All purification steps were carried out at 4° C. Cells containing recombinant HPK1 were lysed in 50 mM HEPES-NaOH, pH 7.5, 250 mM NaCl, 1 mM tris(2-carboxyethyl)phosphine (TCEP), 10 μM leupeptin (Sigma), 10 μM E-64 (Sigma), and one ‘EDTA-free’ protease inhibitor tablet (Roche) per 75 mL buffer, centrifuged at 15,000×g for 1 h and the supernatant passed over 5 mL of ProBond IMAC resin (InVitrogen). After washing, HPK1 was eluted with 12.5 mL of 50 mM HEPES-NaOH, pH 7.5, 400 mM NaCl, 250 mM imidazole-HCl pH 7.5, 1 mM TCEP, 2 μM leupeptin, and 2 μM E-64. The eluted HPK1 was dialyzed overnight against 0.8 L of 50 mM HEPES-NaOH, pH 7.5, 400 mM NaCl, 20 mM imidazole-HCl pH 7.5, 1 mM TCEP, 2 μM leupeptin, 2 μM E-64, 2 mM ATP-NaOH pH 7.3, 5 mM MgCl2 and 1 mg TEV (this step simultaneously allows for reduction of the imidazole concentration in preparation for the subsequent reverse IMAC chromatography step, removal of the polyhistidine purification tag by TEV protease, and autophosphorylation of HPK1 in the presence of MgATP). The de-tagged and autophosphorylated HPK1 was adjusted to 40 mM imidazole-HCl, pH 7.5, and passed through a 10 mL column of ProBond resin similarly equilibrated. […] The peak fractions containing HPK1 were pooled and concentrated to approximately 2.5 mL by using a centrifugal concentrator (Millipore). The concentrated HPK1 was adjusted to 20% (v/v) glycerol by the addition of 50% (v/v) glycerol, resulting in a final formulation of 25 mM HEPES-NaOH pH 7.5, 250 mM NaCl, 0.25 mM TCEP and 20% (v/v) glycerol. […] Aliquots of the enzyme were flash frozen in liquid nitrogen and stored at −80° C. The final product contains a glycine-serine extension at the N-terminus of the full-length protein, as a result of the cloning strategy.

[2] = system: Phospho-SLP-76 (Ser376) in Jurkat cells; test: Phospho-SLP-76 (Ser376) HTRF assay in anti-CD3 stimulated Jurkat cells; assay type: cell-based; details: Homo sapiens, Jurkat, 30 min pre-treatment, anti-CD3 stimulation 15 min, read-out: pSLP76 IC50
Description: Cell Based Assays Phospho-SLP-76 (Ser376) Homogeneous Time Resolved Fluorescence (HTRF) Assay
Jurkat cells were seeded at 90,000 cells/well in 90 uL of RPMI1640 growth medium containing 10% FBS and incubated at 37° C. with 5% CO2 overnight. The following day, compounds were serially diluted from a 10 mM top dose for an 11-point 3-fold dilution curve in DMSO. Compounds were intermediately diluted 1:100 into growth media prior to diluting 1:10 on cells for final concentration 10 μM to 0.1 nM in 0.1% DMSO. After 30 min pre-treatment with compounds, the cells were stimulated using 200 μg/mL of F(ab)2 complexed anti-CD3 (clone UCTH1) for 15 min at 37° C. with 5% CO2. Stimulation was stopped with ice cold PBS and cells were harvested by centrifugation before lysis in Cisbio lysis buffer (Cisbio, Bedford, Mass.). Lysates were transferred to white, low-volume plates containing anti-phospho-SLP-76-Cryptate plus anti-phospho-SLP-76-d2 HTRF antibodies and incubated overnight at room temperature protected from light according to the manufacturer's protocol (Cisbio, Bedford, Mass.). HTRF was measured on a Perkin Elmer Envision and IC50 values were calculated by concentration-response curve fitting utilizing four-parameter nonlinear regression analyses.

Sequence of human full-length autophosphorylated recombinant HPK1 (Q92918 other isoform, or with tags, fused parts or gaps): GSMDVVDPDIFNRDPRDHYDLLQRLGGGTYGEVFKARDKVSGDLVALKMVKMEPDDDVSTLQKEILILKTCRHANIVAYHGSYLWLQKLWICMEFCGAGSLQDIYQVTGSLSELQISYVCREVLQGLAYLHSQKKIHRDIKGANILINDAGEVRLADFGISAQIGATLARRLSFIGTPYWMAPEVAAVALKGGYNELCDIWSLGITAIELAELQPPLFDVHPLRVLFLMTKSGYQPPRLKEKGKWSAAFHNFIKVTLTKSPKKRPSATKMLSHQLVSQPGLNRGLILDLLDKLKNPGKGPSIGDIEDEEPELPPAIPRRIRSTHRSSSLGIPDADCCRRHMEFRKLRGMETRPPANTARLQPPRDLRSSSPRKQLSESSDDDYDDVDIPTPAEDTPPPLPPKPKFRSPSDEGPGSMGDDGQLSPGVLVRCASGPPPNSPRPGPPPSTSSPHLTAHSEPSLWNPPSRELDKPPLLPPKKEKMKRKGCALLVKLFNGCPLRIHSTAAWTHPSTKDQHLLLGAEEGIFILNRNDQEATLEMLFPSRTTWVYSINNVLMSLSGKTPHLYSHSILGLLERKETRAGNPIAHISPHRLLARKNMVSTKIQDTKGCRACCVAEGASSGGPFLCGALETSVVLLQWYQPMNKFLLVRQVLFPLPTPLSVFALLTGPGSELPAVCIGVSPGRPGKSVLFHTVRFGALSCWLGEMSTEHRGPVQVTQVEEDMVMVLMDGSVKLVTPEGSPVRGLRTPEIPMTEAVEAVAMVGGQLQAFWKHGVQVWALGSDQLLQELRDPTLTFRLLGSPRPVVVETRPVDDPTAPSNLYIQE

Structure (SMILES)	Ki [1] [nM]	IC50 [2] [nM]
CC(C)N(C)c1cc2c(c([C@@H](C)N)n1)CN(c1cccc(-c3nnc4n3[C@@H](CF)CC4)n1)C2=O [Example 29, 4-[(1R)-1-aminoethyl]-2-{6-[(5R)-5-(fluoromethyl)-6,7-dihydro-5H-pyrrolo[2,1-c][1,2,4]triazol-3-yl]pyridin-2-yl}-6-[methyl(propan-2-yl)amino]-2,3-dihydro-1H-pyrrolo[3,4-c]pyridin-1-one]	0.2	72
CCCn1cnnc1-c1cccc(N2Cc3c(cc(N4CCC[C@H]4C)nc3[C@H](C)N)C2=O)n1 (single isomer, unassigned) [Example 102]	0.11	107
COC[C@@H](N)c1nc(C2(C)CC2)cc2c1CN(c1cccc(-c3nnc4n3[C@@H](CO)CC4)n1)C2=O (single isomer, unassigned) [Example 38]	0.18	197
CC[C@@H](N)c1nc(C2(C)CC2)cc2c1CN(c1cccc(-c3nnc4n3[C@@H](C)CC4)n1)C2=O (single isomer, unassigned) [Example 37]	< 0.05	49
CC[C@H]1CCc2nnc(-c3cccc(N4Cc5c(cc(N6CCC[C@H]6C)nc5[C@H](N)CC)C4=O)n3)n21 (single isomer, unassigned) [Example 14]	0.93	340
CC[C@@H]1CCc2nnc(-c3cccc(N4Cc5c(cc(N6CCC[C@H]6C)nc5[C@H](N)CC)C4=O)n3)n21 (single isomer, unassigned) [Example 13]	< 0.07	36
C[C@H](N)c1nc(N2CCC[C@H]2C)cc2c1CN(c1cccc(-c3nnc4n3[C@H](C)CC4)n1)C2=O (single isomer, unassigned) [Example 27]	< 0.05	56
CC[C@@H](N)c1nc(N(C)C)cc2c1CN(c1cccc(-c3nnc4n3[C@@H](C)CC4)n1)C2=O [Example 28, 4-[(1R)-1-aminopropyl]-6-(dimethyl-amino)-2-{6-[(5S)-5-methyl-6,7-dihydro-5H-pyrrolo[2,1-c][1,2,4]triazol-3-yl]pyridin-2-yl}-2,3-dihydro-1H-pyrrolo[3,4-c]pyridin-1-one]	< 0.045	64
C[C@H](N)c1nc(N2CCC[C@H]2C)cc2c1CN(c1cccc(-c3nnc4n3[C@@H](C)CC4)n1)C2=O (single isomer, unassigned) [Example 26]	0.72	133

Further lines, results first:

Ki [1] [nM]	IC50 [2] [nM]	Structure (SMILES)
0.4	77	CCN(C)c1cc2c(c([C@H](C)N)n1)CN(c1cccc(-c3nncn3CC)n1)C2=O (single isomer, unassigned) [Example 130, 4-[(1ξ)-1-aminoethyl]-6-[ethyl(methyl)amino]-2-[6-(4-ethyl-4H-1,2,4-triazol-3-yl)pyridin-2-yl]-2,3-dihydro-1H-pyrrolo[3,4-c]pyridin-1-one]
0.28	97	CCN(C)c1cc2c(c([C@@H](C)N)n1)CN(c1cccc(-c3nncn3CC)n1)C2=O (single isomer, unassigned) [Example 129, 4-[(1ξ)-1-aminoethyl]-6-[ethyl(methyl)amino]-2-[6-(4-ethyl-4H-1,2,4-triazol-3-yl)pyridin-2-yl]-2,3-dihydro-1H-pyrrolo[3,4-c]pyridin-1-one]
0.09	42	CCn1cnnc1-c1cccc(N2Cc3c(cc(N4CCC[C@H]4C)nc3[C@@H](C)NC)C2=O)n1 (single isomer, unassigned) [Example 110]
1.53	191	CCn1cnnc1-c1cccc(N2Cc3c(cc(N(C)C)nc3[C@H](C)N)C2=O)n1 (single isomer, unassigned) [Example 152, 4-[(1ξ)-1-aminoethyl]-6-(dimethyl-amino)-2-[6-(4-ethyl-4H-1,2,4-triazol-3-yl)pyridin-2-yl]-2,3-dihydro-1H-pyrrolo[3,4-c]pyridin-1-one]
3.42	470	CCn1cnnc1-c1cccc(N2Cc3c(cc(C4(C)CC4)nc3[C@@H](C)NC)C2=O)n1 [Example 111, 2-[6-(4-ethyl-4H-1,2,4-triazol-3-yl)pyridin-2-yl]-4-[(1R)-1-(methylamino)ethyl]-6-(1-methylcyclo-propyl)-2,3-dihydro-1H-pyrrolo[3,4-c]pyridin-1-one]
0.12	78	CC[C@H]1CCc2nnc(-c3cccc(N4Cc5c(cc(N(C)C)nc5CNC)C4=O)n3)n21 [Example 206, 6-(dimethyl-amino)-2-{6-[(5S)-5-ethyl-6,7-dihydro-5H-pyrrolo[2,1-c] [1,2,4]triazol-3-yl]pyridin-2-yl}-4-[(methyl-amino)methyl]-2,3-dihydro-1H-pyrrolo[3,4-c] pyridin-1-one]
0.31	61	CCn1cnnc1-c1cccc(N2Cc3c(cc(N4CCC[C@H]4C)nc3[C@H](C)NC)C2=O)n1 (single isomer, unassigned) [Example 109]
0.41	148	CCn1cnnc1-c1cccc(N2Cc3c(cc(C4(C)CC4)nc3C(C)(C)N)C2=O)n1 [Example 114, 4-(2-aminopropan-2-yl)-2-[6-(4-ethyl-4H-1,2,4-triazol-3-yl)pyridin-2-yl]-6-(1-methylcyclo-propyl)-2,3-dihydro-1H-pyrrolo[3,4-c]pyridin-1-one]
0.64	214	CCn1cnnc1-c1cccc(N2Cc3c(cc(C4(C)CC4)nc3[C@H](C)N)C2=O)n1 [Example 116, 4-[(1S)-1-aminoethyl]-2-[6-(4-ethyl-4H-1,2,4-triazol-3-yl)pyridin-2-yl]-6-(1-methylcyclo-propyl)-2,3-dihydro-1H-pyrrolo[3,4-c]pyridin-1-one]
0.9	165	CC[C@@H](N)c1nc(C2(C)CC2)cc2c1CN(c1cccc(-c3nncn3CC)n1)C2=O (single isomer, unassigned) [Example 119, 4-[(1ξ)-1-aminopropyl]-2-[6-(4-ethyl-4H-1,2,4-triazol-3-yl)pyridin-2-yl]-6-(1-methylcyclo-propyl)-2,3-dihydro-1H-pyrrolo[3,4-c]pyridin-1-one]
0.11	90	CCCn1cnnc1-c1cccc(N2Cc3c(cc(N4CCC[C@H]4C)nc3[C@H](N)CC)C2=O)n1 [Example 144, 4-[(1R)-1-aminopropyl]-6-[(2R)-2-methylpyrroli-din-1-yl]-2-[6-(4-propyl-4H-1,2,4-triazol-3-yl)pyridin-2-yl]-2,3-dihydro-1H-pyrrolo[3,4-c]pyridin-1-one]
1.02	94	CCCn1cnnc1-c1cccc(N2Cc3c(cc(N(C)C)nc3C(C)(C)N)C2=O)n1 [Example 131, 4-(2-aminopropan-2-yl)-6-(dimethyl-amino)-2-[6-(4-propyl-4H-1,2,4-triazol-3-yl)pyridin-2-yl]-2,3-dihydro-1H-pyrrolo[3,4-c]pyridin-1-one]
